Measured values published in US8916702B2 (priority 2012, dated 2014).

system: HCV pseudoparticles (genotype 1a HCV E1 and E2 envelope, H77C isolate); assay: microbe, parasite or virus in culture; format: cell-based; conditions: Hepatitis C virus, Huh-7, 48 h, HCV pseudoparticle infection of Huh7 cells, luciferase 2 days after infection; average of duplicates

| SMILES | EC50 [nM] |
| --- | --- |
| COc1ccc(CNC(=O)C(=O)NC[C@H](NC(=O)c2ccc(Nc3nc(NC4(c5ccc(Cl)cc5)CC4)nc(OCC(F)(F)F)n3)cc2)C(=O)O)cc1 [Compound 1167] | 1.32 |
| CC(C)(CNC(=O)C(=O)NC1CCCCC1)CNC(=O)c1ccc(Nc2nc(NC3(c4ccc(Cl)cc4)CC3)nc(OCC(F)(F)F)n2)cc1 [Compound 1544] | 0.08 |
| CC(C)(C)OC(=O)NC1CCCC(NC(=O)C(=O)NC[C@H](NC(=O)c2ccc(Nc3nc(NC4(c5ccc(Cl)cc5)CC4)nc(OCC(F)(F)F)n3)cc2)C(=O)O)C1 (stereo partly drawn) [Compound 1083] | 1.78 |

same assay, conditions: Hepatitis C virus, Huh-7, 48 h, HCV pseudoparticles (genotype 1a, H77C) in Huh7 cells; average of duplicate; luciferase 2 days after infection

| SMILES | EC50 [nM] |
| --- | --- |
| COC(=O)[C@H](CCNC(=O)C(=O)Nc1ccc(N2CCC(C(C)=O)CC2)cc1)NC(=O)c1ccc(Nc2nc(NC3(c4ccc(Cl)cc4)CC3)nc(OCC(F)(F)F)n2)cc1 [Compound 3303] | 5.59 |
| CC(C)(CNC(=O)C(=O)Nc1ccc2cccnc2c1)CNC(=O)c1ccc(Nc2nc(NC3(c4ccc(Cl)cc4)CC3)nc(OCC(F)(F)F)n2)cc1 [Compound 3034] | 0.04 |

same assay, conditions: Hepatitis C virus, Huh-7, 48 h, HCV pseudoparticles, Huh7 cells, luciferase 2 days after infection; average of duplicates

| SMILES | EC50 [nM] |
| --- | --- |
| CCc1cccc(NC(=O)C(=O)NC[C@H](NC(=O)c2ccc(Nc3nc(NC4(c5ccc(Cl)cc5)CC4)nc(OCC(F)(F)F)n3)cc2)C(=O)Cl)c1 [Compound 3744] | 1.18 |
| COC(=O)[C@H](CNC(=O)C(=O)Nc1cccc(CN2CCCC2)c1)NC(=O)c1ccc(Nc2nc(NC3(c4ccc(Cl)cc4)CC3)nc(OCC(F)(F)F)n2)cc1 [Compound 3723] | 1.34 |

same assay, conditions: Hepatitis C virus, Huh-7, 48 h, read-out: Activity (EC50 class), HCV pseudoparticle infection of Huh7 cells, luciferase 2 days after infection; EC50 expressed as class A/B

| SMILES | EC50 [nM] |
| --- | --- |
| CCC(CC)CNC(=O)C(=O)NC[C@H](NC(=O)c1ccc(Nc2nc(NC3(c4ccc(Cl)cc4)CC3)nc(OCC(F)(F)F)n2)cc1)C(=O)OC [Compound 1454] | 0.01 to 10 |
| COC(=O)[C@H](CNC(=O)C(=O)Nc1ccncc1)NC(=O)c1ccc(Nc2nc(NC3(c4ccc(Cl)cc4)CC3)nc(OCC(F)(F)F)n2)cc1 [Compound 1258] | 0.01 to 10 |
| COc1ccc(CNC(=O)C(=O)NC[C@H](NC(=O)c2ccc(Nc3nc(NC4(c5ccc(Cl)cc5)CC4)nc(OCC(F)(F)F)n3)cc2)C(=O)O)cc1 [Compound 1167] | 0.01 to 10 |
| COC(=O)[C@H](CCNC(=O)C(=O)NCCc1ccncc1)NC(=O)c1ccc(Nc2nc(NC3(c4ccc(Cl)cc4)CC3)nc(OCC(F)(F)F)n2)cc1 [Compound 1311] | 0.01 to 10 |
| COc1ccccc1CNC(=O)C(=O)NC[C@H](NC(=O)c1ccc(Nc2nc(NC3(c4ccc(Cl)cc4)CC3)nc(OCC(F)(F)F)n2)cc1)C(=O)O [Compound 1165] | 0.01 to 10 |
| COC(=O)[C@H](CCNC(=O)C(=O)NCCc1ccccc1)NC(=O)c1ccc(Nc2nc(NC3(c4ccc(Cl)cc4)CC3)nc(OCC(F)(F)F)n2)cc1 [Compound 1308] | 0.01 to 10 |
| CC(C)c1ccc(NC(=O)C(=O)NCC(C)(C)CNC(=O)c2ccc(Nc3nc(NC4(c5ccc(Cl)cc5)CC4)nc(OCC(F)(F)F)n3)cc2)cc1 [Compound 1589] | 0.01 to 10 |
| COC(=O)[C@H](CCNC(=O)C(=O)NCc1cccc(F)c1F)NC(=O)c1ccc(Nc2nc(NC3(c4ccc(Cl)cc4)CC3)nc(OCC(F)(F)F)n2)cc1 [Compound 1160] | 0.01 to 10 |
| COC(=O)[C@H](CCNC(=O)C(=O)NCCc1cccc(OC)c1)NC(=O)c1ccc(Nc2nc(NC3(c4ccc(Cl)cc4)CC3)nc(OCC(F)(F)F)n2)cc1 [Compound 1309] | 0.01 to 10 |
| COC(=O)[C@H](CCNC(=O)C(=O)Nc1ccncc1)NC(=O)c1ccc(Nc2nc(NC3(c4ccc(Cl)cc4)CC3)nc(OCC(F)(F)F)n2)cc1 [Compound 1236] | 0.01 to 10 |
| CC(C)(CNC(=O)C(=O)NC1CCCCC1)CNC(=O)c1ccc(Nc2nc(NC3(c4ccc(Cl)cc4)CC3)nc(OCC(F)(F)F)n2)cc1 [Compound 1544] | 0.01 to 10 |
| CC(C)(Cc1ccc(F)cc1)NC(=O)C(=O)NCC(NC(=O)c1ccc(Nc2nc(NC3(c4ccc(Cl)cc4)CC3)nc(OCC(F)(F)F)n2)cc1)C(=O)O (stereo not drawn) [Compound 1408] | 0.01 to 10 |
| CC(C)(CNC(=O)C(=O)Nc1ccc(F)c(F)c1)CNC(=O)c1ccc(Nc2nc(NC3(c4ccc(Cl)cc4)CC3)nc(OCC(F)(F)F)n2)cc1 [Compound 1556] | 0.01 to 10 |
| CC(C)(C)OC(=O)NC1CCCC(NC(=O)C(=O)NC[C@H](NC(=O)c2ccc(Nc3nc(NC4(c5ccc(Cl)cc5)CC4)nc(OCC(F)(F)F)n3)cc2)C(=O)O)C1 (stereo partly drawn) [Compound 1083] | 0.01 to 10 |
| COC(=O)C(CNC(=O)C(=O)NC1CC(C)(C)CC(C)(C)C1)NC(=O)c1ccc(Nc2nc(NC3(c4ccc(Cl)cc4)CC3)nc(OCC(F)(F)F)n2)cc1 (stereo not drawn) [Compound 1047] | 0.01 to 10 |
| CC(C)(CNC(=O)C(=O)NCc1ccc(F)cc1)CNC(=O)c1ccc(Nc2nc(NC3(c4ccc(Cl)cc4)CC3)nc(OCC(F)(F)F)n2)cc1 [Compound 1549] | 0.01 to 10 |
| CCC1CCC(NC(=O)C(=O)NCC[C@H](NC(=O)c2ccc(Nc3nc(NC4(c5ccc(Cl)cc5)CC4)nc(OCC(F)(F)F)n3)cc2)C(=O)OC)CC1 (stereo partly drawn) [Compound 1103] | 0.01 to 10 |
| Cc1nccn1CCNC(=O)C(=O)NCC[C@H](NC(=O)c1ccc(Nc2nc(NC3(c4ccc(Cl)cc4)CC3)nc(OCC(F)(F)F)n2)cc1)C(=O)O [Compound 1344] | 0.01 to 10 |
| CCCc1ccc(NC(=O)C(=O)NCC(C)(C)CNC(=O)c2ccc(Nc3nc(NC4(c5ccc(Cl)cc5)CC4)nc(OCC(F)(F)F)n3)cc2)cc1 [Compound 1573] | 0.01 to 10 |

same assay, conditions: Hepatitis C virus, Huh-7, 48 h, read-out: Activity (EC50 class), HCV pseudoparticles, Huh7 cells, luciferase 2 days after infection; average of duplicates

| SMILES | EC50 [nM] |
| --- | --- |
| O=C(NC[C@H](NC(=O)c1ccc(Nc2nc(NC3(c4ccc(Cl)cc4)CC3)nc(OCC(F)(F)F)n2)cc1)C(=O)O)C(=O)Nc1cccc(S(=O)(=O)c2ccccc2)c1 [Compound 3757] | 0.01 to 10 |
| CCc1cccc(NC(=O)C(=O)NC[C@H](NC(=O)c2ccc(Nc3nc(NC4(c5ccc(Cl)cc5)CC4)nc(OCC(F)(F)F)n3)cc2)C(=O)Cl)c1 [Compound 3744] | 0.01 to 10 |
| COC(=O)[C@H](CNC(=O)C(=O)Nc1cccc(-c2cnco2)c1)NC(=O)c1ccc(Nc2nc(NC3(c4ccc(Cl)cc4)CC3)nc(OCC(F)(F)F)n2)cc1 [Compound 3696] | 0.01 to 10 |
| CNS(=O)(=O)c1cccc(NC(=O)C(=O)NCC[C@H](NC(=O)c2ccc(Nc3nc(NC4(c5ccc(Cl)cc5)CC4)nc(OCC(F)(F)F)n3)cc2)C(=O)O)c1 [Compound 3651] | 0.01 to 10 |
| COC(=O)[C@H](CNC(=O)C(=O)Nc1cccc(C(C)C)c1)NC(=O)c1ccc(Nc2nc(NC3(c4ccc(Cl)cc4)CC3)nc(OCC(F)(F)F)n2)cc1 [Compound 3702] | 0.01 to 10 |
| O=C(NC[C@H](NC(=O)c1ccc(Nc2nc(NC3(c4ccc(Cl)cc4)CC3)nc(OCC(F)(F)F)n2)cc1)C(=O)O)C(=O)Nc1cccc(CN2CCCC2)c1 [Compound 3778] | 0.01 to 10 |
| COC(=O)[C@H](CNC(=O)C(=O)Nc1cccc(-c2ccccc2)c1)NC(=O)c1ccc(Nc2nc(NC3(c4ccc(Cl)cc4)CC3)nc(OCC(F)(F)F)n2)cc1 [Compound 3695] | 0.01 to 10 |
| COC(=O)[C@H](CNC(=O)C(=O)Nc1cccc(CN2CCCC2)c1)NC(=O)c1ccc(Nc2nc(NC3(c4ccc(Cl)cc4)CC3)nc(OCC(F)(F)F)n2)cc1 [Compound 3723] | 0.01 to 10 |
| O=C(NCC[C@H](NC(=O)c1ccc(Nc2nc(NC3(c4ccc(Cl)cc4)CC3)nc(OCC(F)(F)F)n2)cc1)C(=O)O)C(=O)Nc1cccc(CN2CCCC2)c1 [Compound 3647] | 0.01 to 10 |

same assay, conditions: Hepatitis C virus, Huh-7, read-out: Activity (EC50 class), HCV pseudoparticles (genotype 1a, H77C) in Huh7 cells; EC50 expressed as class A/B

| SMILES | EC50 [nM] |
| --- | --- |
| Cc1cc(C)nc(N(C)c2ccc(NC(=O)C(=O)NC/C(=N/C(=O)c3ccc(Nc4nc(NC5(c6ccc(Cl)cc6)CC5)nc(OCC(F)(F)F)n4)cc3)C(=O)O)cc2)n1 [Compound 3171] | 0.01 to 10 |
| COC(=O)[C@H](CCNC(=O)C(=O)Nc1ccc(-n2cncn2)cc1)NC(=O)c1ccc(Nc2nc(NC3(c4ccc(Cl)cc4)CC3)nc(OCC(F)(F)F)n2)cc1 [Compound 3130] | 0.01 to 10 |
| CC(C)(CNC(=O)C(=O)Nc1ccc(Cl)cc1)CNC(=O)c1ccc(Nc2nc(NC3(c4ccc(Cl)cc4)CC3)nc(OCC(F)(F)F)n2)cc1F [Compound 3512] | 0.01 to 10 |
| COC(=O)/C(CCNC(=O)C(=O)Nc1cccc(-c2csc(C)n2)c1)=N\C(=O)c1ccc(Nc2nc(NC3(c4ccc(Cl)cc4)CC3)nc(OCC(F)(F)F)n2)cc1 [Compound 3596] | 0.01 to 10 |
| CC(C)(CNC(=O)C(=O)Nc1ccc(C#N)c(Cl)c1)CNC(=O)c1ccc(Nc2nc(NC3(c4ccc(Cl)cc4)CC3)nc(OCC(F)(F)F)n2)cc1 [Compound 3374] | 0.01 to 10 |
| O=C(NCC[C@H](NC(=O)c1ccc(Nc2nc(NC3(c4ccc(Cl)cc4)CC3)nc(OCC(F)(F)F)n2)cc1)C(=O)O)C(=O)Nc1ccc(Cc2ccncc2)cc1 [Compound 3224] | 0.01 to 10 |
| CN(CCCN(C)C(=O)c1ccc(Nc2nc(NC3(c4ccc(Cl)cc4)CC3)nc(OCC(F)(F)F)n2)cc1)C(=O)C(=O)N1CCCCC1 [Compound 3432] | 10 to 1000 |
| COC(=O)[C@H](CNC(=O)C(=O)Nc1ccc(N(C)c2nc(C)cc(C)n2)cc1)NC(=O)c1ccc(Nc2nc(NC3(c4ccc(Cl)cc4)CC3)nc(OCC(F)(F)F)n2)cc1 [Compound 3104] | 0.01 to 10 |
| NC(=O)C(=O)N(CCO)CCCNC(=O)c1ccc(Nc2nc(NC3(c4ccc(Cl)cc4)CC3)nc(OCC(F)(F)F)n2)cc1 [Compound 3498] | 0.01 to 10 |
| CC(C)(CNC(=O)C(=O)Nc1ccc2c(c1)COC2=O)CNC(=O)c1ccc(Nc2nc(NC3(c4ccc(Cl)cc4)CC3)nc(OCC(F)(F)F)n2)cc1 [Compound 3359] | 0.01 to 10 |
| COC(=O)[C@H](CCNC(=O)C(=O)Nc1ccc(-c2csc(C)n2)cc1)NC(=O)c1ccc(Nc2nc(NC3(c4ccc(Cl)cc4)CC3)nc(OCC(F)(F)F)n2)cc1 [Compound 3307] | 0.01 to 10 |
| COC(=O)[C@H](CCNC(=O)C(=O)Nc1ccc(N2CCC(C(C)=O)CC2)cc1)NC(=O)c1ccc(Nc2nc(NC3(c4ccc(Cl)cc4)CC3)nc(OCC(F)(F)F)n2)cc1 [Compound 3303] | 0.01 to 10 |
| O=C(NCCC(NC(=O)c1ccc(Nc2nc(NC3(c4ccc(Cl)cc4)CC3)nc(OCC(F)(F)F)n2)cc1)C(=O)O)C(=O)Nc1ccc(Oc2ccc(F)cc2)cc1 (stereo not drawn) [Compound 3522] | 10 to 1000 |
| O=C(NCC[C@H](NC(=O)c1ccc(Nc2nc(NC3(c4ccc(Cl)cc4)CC3)nc(OCC(F)(F)F)n2)cc1)C(=O)O)C(=O)Nc1ccc(N2CCCC2=O)cc1 [Compound 3227] | 0.01 to 10 |
| CC(C)(CNC(=O)C(=O)Nc1ccc(Cl)cc1C(N)=O)CNC(=O)c1ccc(Nc2nc(NC3(c4ccc(Cl)cc4)CC3)nc(OCC(F)(F)F)n2)cc1 [Compound 3110] | 0.01 to 10 |
| CC(C)(CNC(=O)C(=O)Nc1ccc2cccnc2c1)CNC(=O)c1ccc(Nc2nc(NC3(c4ccc(Cl)cc4)CC3)nc(OCC(F)(F)F)n2)cc1 [Compound 3034] | 0.01 to 10 |
| O=C(Nc1ccccc1)C(=O)N(CCO)CCCNC(=O)c1ccc(Nc2nc(NC3(c4ccc(Cl)cc4)CC3)nc(OCC(F)(F)F)n2)cc1 [Compound 3508] | 0.01 to 10 |
| COc1cc(OC)nc(-c2ccc(NC(=O)C(=O)NCCC(NC(=O)c3ccc(Nc4nc(NC5(c6ccc(Cl)cc6)CC5)nc(OCC(F)(F)F)n4)cc3)C(=O)O)cc2)n1 (stereo not drawn) [Compound 3523] | 0.01 to 10 |
| CC(CNC(=O)C(=O)Nc1nccs1)CNC(=O)c1ccc(Nc2nc(NC3(c4ccc(Cl)cc4)CC3)nc(OCC(F)(F)F)n2)cc1 (stereo not drawn) [Compound 3468] | 0.01 to 10 |
